Test results taken from patent publication US8076485B2, “Methylphenidate derivatives and uses of them” (priority 2005, dated 2011).

How the values were obtained:
IL-8 [1] = test: IL-8 release by TNFα-stimulated HUVECs (ELISA); assay type: cell-based, human; conditions: for IL-8 release stimulated by TNFα: HUVECs, 10 ng/ml TNFα, Cpd II 1-30 μg/ml, MP 15 μg/ml, Dex 10 μM, LY 294002 10 μM
Procedure: Passage 4 HUVECs, human source lot number 8710 (obtained from ATCC), were put into the wells of a 24-well tissue culture plate at 5,000 cells/well in EGM-2 medium and cultured for 72 hours at 37° C. and 5% CO2. […] After incubation for 1 hour at 37° C. and 5% CO2, TNFα (Pierce) was added to give a final concentration of 10 ng/ml, and the cells were incubated for an additional 18 hours at 37° C. and 5% CO2. After this incubation, the supernatants were collected, and the amount of IL-8 in the supernatants determined by ELISA as described in Example 4.

IL-8 [2] = test: IL-8 release from LPS-stimulated THP-1 monocytes (ELISA); assay type: cell-based; conditions: THP-1, LPS 200 ng/ml; Cpd II 15 μg/ml, Dex 10 μM
Procedure: THP-1 is a monocyte cell line obtained from American Type Culture Collection (ATCC) (catalog no. TIB-202). […] After 1 hour, lipopolysaccharide (LPS) (obtained from Sigma) was added to the cultures to give a final concentration of 200 ng/ml, and the cells were then incubated for an additional 4 hours or for an additional 24 hours. After the incubation, the cells were centrifuged, and the supernatants were collected. The concentrations of IL-8 and TNFα in the supernatants were determined by ELISA.
The concentrations of IL-8 in the supernatants were determined by ELISA performed as described in Example 4.

IL-8 [3] = test: IL-8 release by PHA-stimulated PBL (ELISA); assay type: cell-based, human; conditions: Example 4, GR-192 PBL; 15 μg/ml Cpd II, 10 μM Dex; PHA 2 μg/ml, 96 hours; FIG. 8
Procedure: Whole blood was drawn from GR-192, a normal human volunteer, and processed as described in Example 1 to give heat-inactivated serum and PBL. […] After this incubation, PHA was added to give a final concentration of 2 μg/ml, and the cells were incubated for an additional 96 hours at 37° C., 5% CO2. All cultures were performed in triplicate. Cells were then removed by centrifugation at 1000 rpm for 10 minutes, and the culture medium collected.
To perform the ELISA, matched pairs of antibodies against human IL-8 were purchased from Pierce Biotechnology and Biosource, respectively. ELISA strip well plates were coated with 2 μg/ml of antibody to IL-8 (in phosphate-buffered saline (PBS)) overnight at room temperature. The plates were then blocked using a 4% BSA solution in PBS for one hour, followed by the addition of 50 μl of experimental culture medium per well in duplicate. The plates were incubated at room temperature for one hour and then washed using 50 mM Tris pH 8.0 with 0.1% Tween 20. Then, solutions of 100 ng/ml biotinylated second antibody to IL-8 were made in blocking buffer, and 100 μl were added per well. The plates were incubated for 1 hour and washed again. […] OD was determined using microplate reader with a 450 nm filter.

IFNγ = IFNγ release by PBL (ELISA); assay type: cell-based, human; conditions: Example 2, GR467 PBL, 15 μg/ml Cpd II, 15 μg/ml MP, 10 μM Dex, FIG. 4; for IFNγ release, cells stimulated with PHA: PHA 2 μg/ml, 96 hours
Procedure: After this incubation, PHA was added to give a final concentration of 2 μg/ml, and the cells were incubated for an additional 96 hours at 37° C., 5% CO2. All cultures were performed in triplicate. Cells were then removed by centrifugation at 1000 rpm for 10 minutes, and the culture medium collected.
Release of IL-13 and interferon gamma (IFNγ) into the culture medium was measured by ELISA. To perform the ELISA, matched pairs of antibodies against human IL-13 and IFNγ were purchased from Pierce Biotechnology and Biosource, respectively. ELISA strip well plates were coated with 10 μg/ml of antibody (in phosphate-buffered saline (PBS)) to IL-13 and 4 μg/ml of antibody to IFNγ (in PBS) overnight at room temperature. The plates were then blocked using a 4% BSA solution in PBS for one hour, followed by the addition of 50 μl of experimental culture medium per well in duplicate. The plates were incubated at room temperature for one hour and then washed using 50 mM Tris pH 8.0 with 0.1% Tween 20. Then, solutions of 400 ng/ml biotinylated second antibody to IL-13 and 500 ng/ml biotinylated second antibody to IFNγ were made in blocking buffer, and 100 μl were added per well. The plates were incubated for 1 hour and washed again. A 1:8000 dilution of Strepavidin HRP (Pierce Biotechnology) conjugate was made in blocking buffer, and 100 μl were added to the wells and incubation continued for 30 minutes. A final wash step was performed, after which 100 μl Pierce Biotechnology TMB substrate were added to each well. Color was developed for 30 minutes and stopped by adding 100 μl 0.18 NH2SO4. OD was determined using microplate reader with a 450 nm filter.

[4] = Homo sapiens, HUVEC, 18 h, read-out: % inhibition (IL-8)

Structure (SMILES) | IL-8 release stimulated by TNFα (IL-8 [1]) | inhibition at 1 µg/mL (IL-8 [1]; [4]) [%] | inhibition at 5 µg/mL (IL-8 [1]; [4]) [%] | inhibition at 10 µg/mL (IL-8 [1]; [4]) [%] | inhibition at 15 µg/mL (IL-8 [1]; [4]) [%] | inhibition at 30 µg/mL (IL-8 [1]; [4]) [%] | release of IL-8 from the LPS-stimulated monocytes (IL-8 [2]) | IL-8 release induced by PHA (IL-8 [3]) | IFNγ release, unstimulated cells (IFNγ) | IFNγ release, cells stimulated with PHA (IFNγ) | IFNγ release, cells stimulated with PHA (IFNγ; listed as Methylphenidate)
COC(=O)C(c1ccc(-c2ccccc2)cc1)C1CCCCN1 (stereo not drawn) [Cpd II] | decreased IL-8 release stimulated by TNFα in a dose-dependent manner | -51.1 | 3.08 | 38.2 | 41.7 | 86.9 | significantly inhibited the release of IL-8 | significantly inhibited IL-8 release | significantly inhibited IFNγ release | significantly inhibited IFNγ release | –
COC(=O)C(c1ccccc1)C1CCCCN1 (stereo not drawn) [methylphenidate] | slightly decreased IL-8 release | – | – | – | 15.2 | – | – | – | had some effect | increased the release of IFNγ | did not significantly suppress the release of IFNγ
